Test results published in patent publication US9181279B2, “Cyclic amine derivatives as EP4 receptor antagonists” (ROTTAPHARM BIOTECH S.R.L., priority 2011, dated 2015).

Columns and labels:
[1] = Pharmacokinetics in male Han Wistar rats, intravenous and oral; type: in vivo; settings: male Han Wistar rat
Experimental: The pharmacokinetics of compounds E7, E17 and E18, were studied in male Han Wistar rats. The rats were treated intravenously and orally (n=3 for each dose route) with compounds formulated as solutions. The rats were fitted with a jugular cannula for serial sampling. A full profile was acquired from each rat. Plasma extracts were quantitatively analyzed using a specific and sensitive LC-MS/MS bioanalytical method. Inter-individual variations between the three rats in each group were limited (CV for pharmacokinetic parameters was below 50%).

human EP4 receptor = human EP4 receptor (Homo sapiens (Human), UniProt P35408); assay: [3H]-Prostaglandin E2 membrane binding assay toward hEP4 receptors; settings: [3H]-PGE2 1 nM, membranes of human EP4/HEK293 transfectant; read-out: Binding pKi (converted)
Experimental: Human embryonic kidney cells (HEK-293) were stably transfected with expression vector for human EP4 receptor in according to the method described in FuGENE®6 Transfection Reagent's manual (Roche Applied Science®). […] Incubation was conducted in a polypropylene 96 multiwell for 90 min (EP4) or 60 min (EP2) at room temperature prior to separation of the bound and free radioligand by vacuum manifold rapid filtration on glass fiber filters (Unifilter GFB96, PerkinElmer Inc) pre-soaked in 0.3% polyethyleneimine.

Sequence of human EP4 receptor (P35408 whole entry): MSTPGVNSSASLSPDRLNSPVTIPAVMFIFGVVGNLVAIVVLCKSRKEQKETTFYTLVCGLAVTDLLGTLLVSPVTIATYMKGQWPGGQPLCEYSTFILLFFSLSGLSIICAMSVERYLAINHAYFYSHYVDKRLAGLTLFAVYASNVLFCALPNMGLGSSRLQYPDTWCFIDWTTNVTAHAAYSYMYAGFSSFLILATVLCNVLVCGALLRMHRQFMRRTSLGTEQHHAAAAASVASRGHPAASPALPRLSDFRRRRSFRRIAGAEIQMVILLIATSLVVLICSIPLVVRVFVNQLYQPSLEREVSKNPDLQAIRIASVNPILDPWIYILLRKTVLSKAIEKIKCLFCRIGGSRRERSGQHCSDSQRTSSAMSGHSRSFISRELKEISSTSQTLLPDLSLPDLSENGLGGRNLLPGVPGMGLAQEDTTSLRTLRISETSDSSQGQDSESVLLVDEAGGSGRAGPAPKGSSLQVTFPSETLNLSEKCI

O=C(O)c1ccc(C2(NC(=O)C3CC4(CCN3Cc3ccc(C(F)(F)F)cc3)CC4)CC2)cc1 (single isomer, unassigned) [Example E7, 4-(1-(6-(4-(trifluoromethyl)benzyl)-6-azaspiro[2.5]octane-5-carboxamido)cyclopropyl)benzoic acid]
AUC 0-t ([1]; iv, 5 mg/kg): 29200 ng·h/mL | AUC inf ([1]; iv, 5 mg/kg): 31800 ng·h/mL | CLp ([1]; iv, 5 mg/kg): 43 mL/h | Tlast ([1]; iv, 5 mg/kg): 24 h | Vss ([1]; iv, 5 mg/kg): 395 mL | t½ ([1]; iv, 5 mg/kg): 7.4 h | AUC 0-t ([1]; po, 5 mg/kg): 22900 ng·h/mL | AUC inf ([1]; po, 5 mg/kg): 24900 ng·h/mL | Cmax ([1]; po, 5 mg/kg): 5330 ng/mL | F ([1]; po, 5 mg/kg): 78% | Tlast ([1]; po, 5 mg/kg): 24 h | Tmax ([1]; po, 5 mg/kg): 0.5 h | t½ ([1]; po, 5 mg/kg): 6.7 h

O=C(O)c1ccc(C2(NC(=O)C3CC(F)(F)CCN3Cc3ccc(C(F)(F)F)cc3)CC2)cc1 (single isomer, unassigned) [Example E18, 4-(1-(4,4-difluoro-1-(4-(trifluoromethyl)benzyl)piperidine-2-carboxamido)cyclopropyl)benzoic acid]
Tlast ([1]; iv, 1 mg/kg): 24 h | F ([1]; po, 1 mg/kg): 93% | Tlast ([1]; po, 1 mg/kg): 24 h

O=C(O)c1ccc(C2(NC(=O)[C@H]3CCCCN3Cc3ccc(C(F)(F)F)cc3)CC2)cc1 [Example E4, lithium (R)-4-(1-(1-(4-(trifluoromethyl)benzyl)piperidine-2-carboxamido)cyclopropyl)benzoate]
Ki (human EP4 receptor): 39.8 nM

O=C(O)c1ccc(C2(NC(=O)[C@H]3CC(F)(F)CCN3Cc3ccc(C(F)(F)F)cc3)CC2)cc1 [Example E17, (R)-4-(1-(4,4-difluoro-1-(4-(trifluoromethyl)benzyl)piperidine-2-carboxamido)cyclopropyl)benzoic acid]
F ([1]; po, 1 mg/kg): 85% | Tlast ([1]; po, 1 mg/kg): 24 h

C[C@H](NC(=O)[C@H]1CCCN1Cc1ccc(C(F)(F)F)cc1)c1ccc(C(=O)O)cc1 [Example E27, lithium 4-((S)-1-((R)-1-(4-(trifluoromethyl)benzyl)pyrrolidine-2-carboxamido)ethyl)benzoate]
Ki (human EP4 receptor): 50.1 nM
